Reference: patent publication US20260284138A1, “METHODS OF MODULATING THE EPITHELIAL-MESENCHYMAL TRANSITION” (RS Oncology, LLC, priority 2023, published 2026)

Key:
[1] = tested on: PRX3; assay: PRX3 crosslinking by reducing SDS-PAGE and western blot; type: cell-based, human
Excerpt: PRX3 is the primary mitochondrial peroxidase required for H2O2 clearance from the mitochondria induced by metabolic, tumorigenic, and drug treatment inputs. During the metabolism of H2O2, PRX3 forms an intramolecular disulfide bond that orients the second active site for TS-dependent covalent crosslinking, inactivating the protein leading to increased oxidative stress and tumor cell death.
(§1) Erastin potentiates PRX3 crosslinking and ROS generation by TS. FIG. 10A show Western blot from HM cells treated with TS (1 μM), erastin (ER, 2.5 μM) or TS+ER for 24 hours. Samples were run under reducing conditions by SDS-PAGE. FIG. 10B show quantification of PRX3 dimer (TS-crosslink) to PRX3 monomer (unmodified PRX3) from protein western blots as in A (n=2 biological replicates). FIG. 10C show ROS levels in cells treated with TS, ER, or TS+ER for 24 hours (n=2 biological replicates, 3 technical replicates). FIG. 10D show protein western blot of cells cultured in media+/−cystine and treated with TS or ER. PRX3 crosslinking by TS is increased in cells cultured in cystine free (−) media.

[2] = tested on: HM cells; assay: Cell viability assay of HM cells; type: cell-based, human
Protocol: (§2) FIG. 8A show BAP1 protein expression in immortalized mesothelial (LP9), pleural Meso (HM, MI), and peritoneal Meso (Pet-Gar) cell lines. […] FIG. 8B show EC50 values for TS in normal and MM cell lines (*p<0.05, **p<0.01, ***p<0.001, ****p <0.0001, n=4 biological replicates) FIG. 8C show protein western blots of BAP1 and GAPDH in HM scramble control (SCR) and BAP1 siRNA expressing (siBAP1) cells. FIG. 8D show cell viability curves of cells treated with TS 48 hours (n=3).
ZSS>10 indicates synergy between the two compounds.
TS synergy with ER is independent of ferrostatin sensitive MOA.
Knockdown of SLC7A11 potentiates TS activity. […] PRX3 crosslinking is increased in the SLC7A11 KD samples.

[3] = tested on: BAP1; assay: BAP1 protein expression by western blot; type: cell-based, human; conditions: TS 4 μM; LP9, HM, MI, Pet-Gar cell lines
Protocol: as §2

[4] = tested on: mitochondrial PRX3; assay: Preclinical PRX3 inhibition in transformed cells; type: cell-based
Excerpt: (§3) RSO-021 is a PRX3 inhibitor that inactivates PRX3 through direct covalent adduction of active site cysteine residues, in turn, inducing oxidative stress to levels incompatible with tumor cell survival.

[5] = tested on: patient derived explants (PDEs); assay: Gene set enrichment analysis of patient derived explants treated with TS; type: cell-based, human; conditions: PDEs treated with 10 μM of TS vs untreated
Excerpt: Mesothelioma, a lethal cancer associated with asbestos exposure, lacks effective drug therapy particularly in the relapsed treatment setting. Epithelial-to-mesenchymal transition (EMT) confers an aggressive sarcomatoid phenotype capable of invasion, metastasis, and drug resistance. Pharmacological targeting of EMT could favorably alter the progression and treatment of mesothelioma. Mesothelioma cells rely on buffering of mitochondrial oxidative stress through the expression and activity of mitochondrial peroxiredoxin 3 (PRX3), which is covalently inactivated by the inhibitor RSO-021 (Thiostrepton, TS). To better understand the pharmacodynamics of TS, transcriptomic profiles of drug sensitive and resistant biphasic mesothelioma cell lines were generated. […] Lastly, downregulation of EMT by TS was determined in a cohort of TS treated mesothelioma surgical explants. In summary, PRX3 is a clinically actionable drug target, inhibition of which correlates with EMT modulation.

[6] = tested on: human biphasic mesothelioma cell lines; assay: RNA-Seq / RT-qPCR gene expression in mesothelioma cells treated with TS; type: cell-based
Protocol: Described herein are methods to evaluate changes in gene expression in malignant mesothelioma cells (H-meso cell line) treated with thiostrepton (HM-TS) for 16 hrs and compare to HM-TSR (TS_tolerant cells) grown in the presence of […] TS for several weeks. Biological triplicates were generated, RNA extracted, and RNA integrity evaluated. Cell lysates and cDNA were evaluated for known gene changes by RT-qPCR prior to library builds. Libraries were generated using the SMARTer® Stranded RNA-Seq Kit HT from Takara, pooled and analyzed on the Illumina HiSeq 1500 using a rapid run dual lane SE sequencing flow cell. Each library yielded an average of […] mapped reads.
Spatial multiregional sampling of adjacent, intra-tumour E (7) vs S (12) regions from 7 patients with bi-phasic mesothelioma was followed by whole exome, transcriptome and 100-plex immunofluorescence analysis (employing cytokeratin-based cell segmentation). Machine learning (random forests) was employed to infer E to S evolutionary trajectories at the genomic, transcriptomic and protein levels. Biphasic human mesothelioma cells were treated with the PRX3 inhibitor RSO-021 (thiostrepton) and gene-expression changes were evaluated by RT-qPCR.
E and S transition requires Mitochondrial peroxiredoxin 3 (PRX3). […] EMT, hypoxia and glycolysis associated transcription were reduced in RSO-021 treated cells (FIG. 4B). […] Further, MAPK13 (p38) expression is increased in TS treated cells (FIG. 4F). p38 negatively regulates TEAD signaling while TEAD promotes EMT and tumorigenesis. […] TGFb is a master regulator of EMT. VGLL4 inhibits TEAD transcription (FIG. 4H). […] Mesothelin (MSLN) is exclusively expressed in epithelioid MM (FIG. 5A). TS resistant cells increase MSLN expression, indicating a switch to an epithelioid phenotype. EMT is a primary driver in the Epithelioid to sarcomatoid transition (FIG. 5B).

[7] = Preclinical animal studies, tolerability; type: in vivo
Excerpt: as §3

[8] = tested on: cytokine levels in pleural effusion; assay: Phase 1/2 clinical trial: cytokine levels in pleural effusion by ELISA; type: in vivo, human; conditions: pleural effusion pre- and post-treatment, weekly intrapleural administration
Excerpt: FIGS. 7A-7B show administration of RSO-021 and effect on cytokine levels. […] Prior to each dose patients will have pleural effusion drained to dryness per standard of care. After each administration, the IPC is secured until next RSO-021 dosing time point. […] Absolute values as determined following ELISA are shown from 7 patients enrolled on the trial.
RSO-021 is a PRX3 inhibitor that was investigated in a first-in-human phase ½ clinical trial, recruiting patients with malignant pleural effusion (MPE) arising from mesothelioma or other solid tumors. Mesothelioma cells rely on buffering of mitochondrial oxidative stress through the expression and activity of mitochondrial PRX3, which is covalently inactivated by RSO-021. Inactivation of PRX3 by RSO-021 leads to increased oxidative stress and tumor cell death. RSO-021 may be administered weekly via an intrapleural catheter. Cytokine levels in pleural effusion drainages were measured by ELISA assays. Tumor explants were grown following surgical resection of mesothelioma tumors. RNA sequencing of MM cell lines was conducted. […] RNA sequencing of cells derived from pre-and post-treated MPE aims to identify RSO-021 induced transcriptional changes and their association with clinical activity. […]

[9] = tested on: HM-TSR cells; assay: Cell viability assay of TS-resistant HM-TSR cells; type: cell-based, human; conditions: TS+ER 48 hours
Protocol: TS-resistant cells over-express SLC7A11 and are re-sensitized to TS by Erastin (ER). HM cells were dosed with TS by repetitive drug treatment with a short 24-48 hr recovery period. […] Development of a drug-tolerant cell line with tolerance at […] after 8 months. […] The shift in sensitivity of the HM-TSR-TS line to the HM-TSR-TS/ER line.

[10] = tested on: HM cells; assay: ROS levels in treated cells; type: cell-based, human; conditions: ER or TS+ER, 24 hours
Protocol: as §1

With `CCOC(=O)c1ccc(NC2CCCCC2)c(N)c1` [Fer-1, Ferrostatin] the “effect on PRX3 crosslinking by TS or TS+ER” value ([1]; cells treated +/- Fer-1, FIG. 11C) was “does not alter”, the “effect on TS/ER cytotoxic synergy” value ([2]; 48 hours) was “does not block” and the “effect on ER cytotoxicity” value ([2]; 48 hours, FIG. 11A) was “blocks”.

In the case of `C=C(NC(=O)C(=C)NC(=O)c1csc(C2=N[C@@H]3c4csc(n4)[C@H]4NC(=O)c5csc(n5)[C@H]([C@](C)(O)[C@@H](C)O)NC(=O)[C@H]5CSC(=N5)/C(=C/C)NC(=O)[C@H]([C@@H](C)O)NC(=O)c5csc(n5)[C@]3(CC2)NC(=O)[C@H](C)NC(=O)C(=C)NC(=O)[C@H](C)NC(=O)[C@H]([C@@H](C)CC)N[C@@H]2C=Cc3c([C@H](C)O)cc(nc3[C@H]2O)C(=O)O[C@@H]4C)n1)C(N)=O` [TS, Thiostrepton], the BAP1 protein expression [3] is reported as “does not alter”, the “selectivity of mitochondrial PRX3 inhibition” value [4] is reported as “selectively inhibits” and the “epithelial mesenchymal transition genes” value [5] is reported as “downregulated”. For the same compound, the “EMT, hypoxia and glycolysis associated transcription” value ([6]; GSEA, treated vs control cells, FIG. 4B) was “reduced”, the VISTA expression ([6]; RSO-021 treated cells, FIG. 4D) was “upregulated” and the “MAPK13 (p38) expression” value ([6]; TS treated cells, FIG. 4F) was “increased”. The “TGFb1 and TGFb2 expression” value ([6]; TS treated cells, FIG. 4G) was “downregulated”, the “Additional TEAD targets EGFR, DKK1, WNT5B, SLC7A5, and WNT5A” value ([6]; TS treatment, FIG. 4I) was “downregulated” and the “TEAD target genes, TGF-β and EMT associated genes including CDH2” value ([6]; biphasic mesothelioma cells, FIG. 4A) was “downregulated”. For the same compound, the “mesothelin (MSLN) expression” value ([6]; biphasic mesothelioma cells, FIG. 4A/4D) was “upregulated”, the “ROS response and apoptosis signaling” value ([6]; differential transcriptomic analysis) was “upregulation” and the “expression of mesothelioma specific EMT genes Col5A, mesothelin, and VISTA” value ([6]; transcriptomic profiles) was “altered expression”. The tolerability [7] was “well-tolerated”, the PRX3 crosslinking ([1]; SLC7A11 KD samples, FIG. 12C) was “increased” and the “PRX3 crosslinking by TS” value ([1]; cells cultured in cystine free (−) media) was “increased”. The “modified PRX3 (PRX3-TS)” value ([1]; reducing SDS-PAGE and western blotting) was “dose-dependent irreversible increase”, the “TS activity in relation to BAP1 expression” value ([2]; BAP1 siRNA vs scramble, TS 48 hours) was “independent of BAP1 expression” and the “TS activity on knockdown of SLC7A11” value ([2]; HM cells, SLC7A11 siRNA) was “potentiates”. The “cytokine levels including Resistin, IL-8 and IL-6” value [8] was “significant changes”.

In the case of `CCOc1ccccc1-n1c(C(C)N2CCN(C(=O)COc3ccc(Cl)cc3)CC2)nc2ccccc2c1=O` (stereo not shown) [Erastin, erastin], the “sensitivity of TS-resistant cells to TS” value [9] is reported as “re-sensitized”, the “effect on PRX3 crosslinking by TS” value ([1]; HM cells, TS 1 μM, erastin 2.5 μM, 24 hours) is reported as “potentiates” and the “effect on ROS generation by TS” value [10] is reported as “potentiates”.
